Measured values: patent publication EP4799701A2, “PYRIMID-2-YL-PYRAZOLE COMPOUNDS AS IRAK INHIBITORS” (Rigel Pharmaceuticals, Inc., priority 2022, dated 2023)
Values joined by “and” are separate entries in the source; they are usually repeats but may differ in a detail not shown here. Identical values can stand only once.

Experiments:
[1] = Rat brain homogenate binding, equilibrium dialysis (RED); assay type: in vitro ADME
Procedure: Brain and plasma drug binding were performed by equilibrium dialysis using the Rapid Equilibrium Dialysis (RED) device. Briefly, 300 µL of plasma or brain homogenate (1 brain /3 buffer) containing drug (5 µM) was equilibrated (4-18 h) against 500 µL of buffered saline. After incubation, the concentration of drug in plasma/brain homogenate and buffer was determined by LC-MS/MS.
Two runs of rat brain homogenate binding with I-1 compared to Comparison-1. I-1 is approximately 10-fold more free in rat brain than Comparison-1.

[2] = tested on: IL-1β-induced production of the cytokine IL-6; assay: IL-1β-induced IL-6 in primary human endothelial cells; assay type: cell-based; conditions: result in words
TLR4-induced IL-23 = assay: LPS induced IL23p19 in THP-1 cells (IFNγ primed), IL-23p19 sandwich ELISA; assay type: cell-based, human; conditions: human THP-1 cells; result in words
Source text: LPS induced IL23p19 in THP-1 cells (with IFNy primed) Assay
THP-1 Cells (ATCC, Cat# TIB-202), Dimethyl Sulfoxide (DMSO) (Sigma-Aldrich, Cat# D2650), RPMI 1640 (Cellgro, Cat# 10-040-CM), Fetal Bovine Serum (Sigma, Cat# F4135), Albumin From Bovine Serum (BSA) (Sigma-Aldrich, Cat#A7906), LPS (Serotype K-235, Sigma, Product Number L 2143), IFNγ (Peprotech, Cat# 300-02), Capture antibody: Human IL-23p19 ELISA (e-Bioscience, Cat. # 14-7238-85), Detection antibody: Primary Mouse Biotinylated anti-human IL-12(p40/p70) (e-Bioscience, Cat. # 13-7129-85), Secondary HRP-conjugated Streptavidin (R&D Systems, Cat#DY998), 1x PBST Washing Buffer (PBS-Tween tablet) (VWR International, Cat#80058-558), ELISA Blocking Buffer (PBS with 1% BSA), ELISA Dilution Buffer (PBS with 1% BSA), 384 Well Flat-Bottom, MaxiSorp Black Immuno Plates (Thermo Scientific, Cat# 12-565-346), 384 Well Flat-Bottom, White Tissue Culture Plates (Thermo Scientific, Cat# 12-565-343), Super Signal ELISA Pico Chemiluminescent Substrate (Thermo Scientific, Cat#37070), Cell Titer Glo reagent (Promega, Cat#G7573), Positive control, IKK2VI inhibitor (Calbiochem, Cat#401483), AquaMax 4000 plate washer (Molecular Devices), Luminometer, Wallac Victor2 1420 Multilabel Counter.
On day 1, 50K/well THP-1 cells were seeded and primed with IFNγ (50ng/mL) in 384-well plates for about 18 hours in RPMI media with 10%FBS. On day 2, the compound was serially diluted in DMSO from 5 mM in 3-fold dilutions, and then diluted 1:125 in RPMI media with 10%FBS. […] IL-23p19 protein in 70 µL/well of supernatant was measured by sandwich ELISA, and 25 µl/well Cell Titer Glo reagent was added to the remaining cells to measure compound toxicity.
Maxisorp immuno ELISA plates were pre-coated with 25 µL/well of anti-IL-23p19 capture antibody (2.5ug/mL) in PBS overnight at room temperature. […] The plates were read with a luminometer, and the chemiluminescence values were entered into Athena (Rigel) for curve fitting, EC50 calculation, and database storage. […]

TLR7-induced TNF-α = assay: TNF-α in human monocyte-derived dendritic cells (gardiquimod); assay type: cell-based; conditions: human primary dendritic cells (DC); result in words
Procedure: After 2 hours, the media including floating cells was carefully removed and 12 ml of fresh RPMI media (10% FBS) containing GM-CSF (100 ng/ml) and IL-4 (20 ng/ml) were added to the adherent monocytes.
The differentiated dendritic cells (DC) were harvested by centrifugation (1200 rpm/5 min).

## CCO[C@H]1CC[C@H](n2cc(NC(=O)c3csc(-c4cn[nH]c4)n3)c(-c3ncccn3)n2)CC1 [Compound I-1, N-(1-((1r,4r)-4-ethoxycyclohexyl)-3-(pyrimidin-2-yl)-1H-pyrazol-4-yl)-2-(1H-pyrazol-4-yl)thiazole-4-carboxamide]
[1]; rat brain homogenate
  more free in rat brain than Comparison-1: approximately 10 fold
[1]; two runs, brain homogenate 1 brain /3 buffer, drug 5 µM, 5 µM
  rat brain homogenate binding (free drug): 1.06% and 1.43%
[2]
  IL-1β-induced production of the cytokine IL-6: potently inhibits
TLR4-induced IL-23
  TLR4-induced IL-23 production: inhibits
TLR7-induced TNF-α
  TLR7- induced TNF-α production: blocks
